Measured values: patent EP4567031A1, “HPK1 INHIBITOR, PREPARATION METHOD THEREFOR, AND USE THEREOF” (Beijing Earthwise Technology Co., Ltd., priority 2022, dated 2024)
Read-outs that look alike come from different tables or passages of the source.

Assays:
[1] = molecular target: HPK1 (Homo sapiens, UniProt Q92918); experiment: HPK1 HTRF kinase assay; format: biochemical; conditions: 1000 µM ATP, 50 nM HPK1, STK1 substrate
Protocol: The reaction was initiated by adding 50 nM HPK1. After 120 minutes of reaction, the assay was terminated by adding 10 µL of Detection Mix.
The ratio of the signal at 665 nm to the signal at 615 nm was converted to the percentage of inhibition. Inhibition % = (maximum value - sample value) / (maximum value - minimum value)×100. The minimum value refers to the value measured in a well without enzyme but with DMSO and substrate, and the maximum value refers to the value measured in a well with DMSO, enzyme and substrate. IC50 values were calculated by XLFit (version 5.3.1.3) in Excel. Equation: Y = Bottom + (Top - Bottom) / (1 + (IC50/X) ^ HillSlope).

[2] = system: human Pan T cells; experiment: Human Pan T cell IL-2 ELISA; format: cell-based; conditions: Homo sapiens, T-cell, 48 h, Anti-CD3 and Anti-CD28, supernatant IL-2 ELISA, read-out: IL-2 release, EC50
Procedure, shortened: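 Human Pan T cells (1×10^6 cells/ml) stimulated with plate-bound anti-CD3 plus anti-CD28 and treated 48 h with compound at 9 final concentrations, 39.063–10000 nM. Supernatant IL-2 by ELISA, expressed as fold over DMSO wells; EC50 from four-parameter logistic fit.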

[3] = system: Phospho-SLP-76 (Ser376); experiment: Phospho-SLP-76 (Ser376) HTRF assay in Jurkat E6-1 cells; format: cell-based; conditions: Homo sapiens, compound 4 hours, then anti-CD3 antibody 20 minutes, read-out: pSLP76, IC50
Protocol: A compound was dissolved in DMSO to 10 mM, and then diluted three-fold with DMSO to 10 dosages in a 96-well plate. Then, 3 µL of the diluted compound sample was transferred to a 96-well plate with 97 µL of cell culture medium, and the plate was shaken for 5 minutes. According to the experimental design diagram, 7.5 µL of the diluted compound sample was transferred to a cell plate. Final concentrations of the compound in this assay were 10000.00, 3333.33, 1111.11, 370.37, 123.46, 41.15, 13.72, 4.57, 1.52 and 0.51 nM.
In this assay, the density of Jurkat E6-1 cells was maintained between 3*10^5 to 3*10^6 cells/mL. The cell culture was replaced with fresh culture medium every 2 to 3 days (depending on the cell density).
30 µL of Jurkat E6-1 (300,000 cells) was added to a 96-well plate and incubated in a 37 °C incubator for 1 hour. Then, according to the experimental design diagram, compounds (6×, 7.5 µL) were added to treat the cells for 4 hours, respectively. After 4 hours, purified anti-human anti-CD3 antibodies (6×, 7.5 µL) were added to treat the cells for 20 minutes. After 20 minutes, 15 µL of cell lysis buffer (4×) was added, and the cells were lysed at 25 °C with shaking (250 rpm) for 1 hour. Then, according to the experimental design diagram, 16 µL of cell lysate was transferred to a 384-well plate using a pipette. After the transfer, 4 µL of antibody detection mixture was added. After being placed at room temperature overnight, the plate was read by EnVision multi-function microplate reader to read the FRET signal (the ratio of HTRF 665/615 was calculated from the readings at 665 nm and 615 nm).
The ratio of the signal at 665 nm to the signal at 615 nm was converted to the percentage of inhibition. Inhibition % = (maximum value - sample value) / (maximum value - minimum value)×100. The minimum value refers to the signal value of a well without anti-CD3 antibody stimulation during the treatment of cells, and the maximum value refers to the signal value of a well with anti-CD3 antibody stimulation but without the compound during the treatment of cells. IC50 values were calculated by XLFit (version 5.3.1.3) in excel. Equation: Y = Bottom + (Top-Bottom) / (1 + (IC50/X) ^ HillSlope). Table 4. Results of cellular activity of the compounds

Sequence of HPK1 (Q92918 whole entry, species assumed): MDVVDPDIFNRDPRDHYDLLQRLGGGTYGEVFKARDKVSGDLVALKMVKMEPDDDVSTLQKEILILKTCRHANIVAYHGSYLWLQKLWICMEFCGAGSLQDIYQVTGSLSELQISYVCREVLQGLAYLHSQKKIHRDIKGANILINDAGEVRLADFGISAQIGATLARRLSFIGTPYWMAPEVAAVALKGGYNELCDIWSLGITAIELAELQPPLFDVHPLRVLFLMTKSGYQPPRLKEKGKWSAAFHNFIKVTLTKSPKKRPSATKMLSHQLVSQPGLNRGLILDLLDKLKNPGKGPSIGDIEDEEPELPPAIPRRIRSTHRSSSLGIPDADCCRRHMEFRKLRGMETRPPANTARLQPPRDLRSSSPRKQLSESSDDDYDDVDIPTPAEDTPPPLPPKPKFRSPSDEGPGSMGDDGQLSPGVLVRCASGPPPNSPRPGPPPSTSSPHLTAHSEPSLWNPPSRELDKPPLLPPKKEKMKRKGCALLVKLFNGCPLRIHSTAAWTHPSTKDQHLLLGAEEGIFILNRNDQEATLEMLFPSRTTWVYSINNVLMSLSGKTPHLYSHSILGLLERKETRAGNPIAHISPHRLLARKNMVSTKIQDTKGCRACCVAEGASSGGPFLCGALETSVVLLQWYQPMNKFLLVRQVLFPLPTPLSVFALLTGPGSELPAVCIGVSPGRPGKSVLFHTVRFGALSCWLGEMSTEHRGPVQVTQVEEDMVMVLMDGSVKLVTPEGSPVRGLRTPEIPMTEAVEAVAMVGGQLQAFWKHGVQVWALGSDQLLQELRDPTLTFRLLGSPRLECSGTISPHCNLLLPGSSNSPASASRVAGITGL

SMILES	IC50 ([1]; read-out: HPK1, IC50)	EC50 [2]	IC50 [3]	IC50 ([1]; HPK1, IC50 (nM))
CC1(C)c2cc(N3CCOC(C(C)(C)O)C3)ccc2Nc2c1cc(-c1cnc3c(C#N)cccn13)c1c2C(=O)NC1 (stereo not shown) [Example 23]	3.65 nM	< 1.5 nM	–	–
Cc1ccnc2c(-c3cc4c(c5c3CNC5=O)Nc3ccc(N5CCOCC5)cc3C4(C)C)cnn12 [Example 60]	14.4 nM	17.9 nM	–	–
Cc1ncc(-c2cc3c(c4c2CNC4=O)Nc2ccc(N4CCOCC4)cc2C3(C)C)n1C [Example 87]	7.88 nM	8.97 nM	–	–
CC1(C)c2cc(NC(=O)COCCO)ccc2Nc2c1cc(-c1cnn3cccnc13)c1c2C(=O)NC1 [Example 92]	7.64 nM	68.2 nM	–	–
COc1ccnn2c(-c3cc4c(c5c3CNC5=O)Nc3ccc(N5CCOC(C(C)(C)O)C5)cc3C4(C)C)cnc12 (stereo not shown) [Example 24]	11.8 nM	1.83 nM	–	–
CC1(C)c2cc(N3CCOCC3)ccc2Nc2c1cc(-c1cnc3cc(F)ccn13)c1c2C(=O)NC1 [Example 62]	6.08 nM	3.02 nM	–	–
COc1cccn2c(-c3cc4c(c5c3CNC5=O)Nc3ccc(N5CCOCC5)cc3C4(C)C)nnc12 [Example 75]	4.55 nM	1.41 nM	–	–
COc1cccc2c(-c3cc4c(c5c3CNC5=O)Nc3cnc(N5CCOCC5)cc3C4(C)C)cnn12 [Example 27]	11.7 nM	1.79 nM	–	–
CC1(C)c2cc(NC(=O)CC3CC3)ccc2Nc2c1cc(-c1cnn3cccnc13)c1c2C(=O)NC1 [Example 56]	11.5 nM	28 nM	–	–
CC1(C)c2cc(N3CCOCC3)ccc2Nc2c1cc(-c1cnn3ccncc13)c1c2C(=O)NC1 [Example 35]	12.8 nM	14.5 nM	–	–
CC1(C)c2cc(N3CCOC(C(C)(C)O)C3)ccc2Nc2c1cc(-c1cnn3cccnc13)c1c2C(=O)NC1 (stereo not shown) [Example 22]	11.2 nM	2.2 nM	–	–
COc1nccn2c(-c3cc4c(c5c3CNC5=O)Nc3ccc(N5CCOCC5)cc3C4(C)C)cnc12 [Example 63]	5.48 nM	4.98 nM	–	–
CC1(C)c2cc(N3CCOCC3)ncc2Nc2c1cc(-c1cnn3cccnc13)c1c2C(=O)NC1 [Example 26]	14.5 nM	14.9 nM	–	–
Cn1ccc2c(-c3cc4c(c5c3CNC5=O)Nc3ccc(N5CCOCC5)cc3C4(C)C)cncc21 [Example 38]	12.3 nM	4.7 nM	–	–
CC1(C)c2cc(N3CCOCC3)ccc2Nc2c1cc(-c1cnn3c1CCCC3)c1c2C(=O)NC1 [Example 36]	11.8 nM	6.33 nM	–	–
CNc1cncc(-c2cc3c(c4c2CNC4=O)Nc2ccc(N4CCOCC4)cc2C3(C)C)c1 [Example 82]	6.62 nM	27 nM	–	–
Cc1cc(-c2cc3c(c4c2CNC4=O)Nc2ccc(N4CCOCC4)cc2C3(C)C)cc(=O)[nH]1 [Example 81]	6.31 nM	35.8 nM	–	–
CC1(C)c2cc(C3COCCN3)ccc2Nc2c1cc(-c1cnn3cccnc13)c1c2C(=O)NC1 (stereo not shown) [Example 52]	8.2 nM	9.08 nM	–	–
CC1(C)c2cc(CN3CCN(CC4CC4)CC3)ccc2Nc2c1cc(-c1cnn3cccnc13)c1c2C(=O)NC1 [Example 72]	2.13 nM	18.1 nM	–	–
CN1CCN(c2ccc3c(c2)C(C)(C)c2cc(-c4cnn5cccnc45)c4c(c2N3)C(=O)NC4)C(=O)C1 [Example 55]	7.55 nM	40.3 nM	–	–

SMILES	IC50 ([1]; read-out: HPK1, IC50)	EC50 [2]	IC50 [3]	IC50 ([1]; HPK1, IC50 (nM))
CN1CCn2c(-c3cc4c(c5c3CNC5=O)Nc3ccc(N5CCOCC5)cc3C4(C)C)cnc2C1 [Example 78]	35 nM	75.5 nM	–	–
CC1(C)c2cc(C3CCNCC3)ccc2Nc2c1cc(-c1cnn3cccnc13)c1c2C(=O)NC1 [Example 83]	5.8 nM	17.4 nM	–	–
CC1(C)c2cc(N3CCOCC3)ccc2Nc2c1cc(-c1cnc3c(F)cccn13)c1c2C(=O)NC1 [Example 64]	5.28 nM	3.51 nM	–	–
CC1(C)c2cc(N3CCOCC3)ccc2Nc2c1cc(-c1nnc3c(C#N)cccn13)c1c2C(=O)NC1 [Example 39]	39 nM	16.8 nM	–	–
CC1(C)c2cc(N3CCOCC3)ccc2Nc2c1cc(-c1cnn3ccccc13)c1c2C(=O)NC1 [Example 37]	7.98 nM	2.27 nM	–	–
Cn1ccc(-c2cc3c(c4c2CNC4=O)Nc2ccc(N4CCOC(C(C)(C)O)C4)cc2C3(C)C)cc1=O (stereo not shown) [Example 32]	16.4 nM	12.3 nM	–	–
CC1(C)c2cc(N3CCOCC3)ccc2Nc2c1cc(-c1cnn3c1CNCC3)c1c2C(=O)NC1 [Example 70]	12.7 nM	23.4 nM	–	–
Cc1ccc2c(-c3cc4c(c5c(=O)[nH]ccc35)Nc3ccc(N5CCOC(C(C)(C)O)C5)cc3C4(C)C)cnn2c1 (stereo not shown) [Example 7]	–	–	487 nM	–
CC1(C)c2cc(N3CCOCC3)ccc2Nc2c1cc(-c1cncc(OCC3COC3)c1)c1c2C(=O)NC1 [Example 74]	49.7 nM	100 nM	–	–
CC1(C)c2cc(N3CCOCC3)ccc2Nc2c1cc(-c1cnc3n1CCOC3)c1c2C(=O)NC1 [Example 79]	6.36 nM	19.5 nM	–	–
Cn1cccc(Nc2cc3c(c4c2CNC4=O)Nc2ccc(N4CCOCC4)cc2C3(C)C)c1=O [Example 67]	3.93 nM	14.4 nM	–	–
Cc1cnc2c(-c3cc4c(c5c3CNC5=O)Nc3ccc(N5CCOCC5)cc3C4(C)C)cnn2c1 [Example 61]	8.55 nM	17.7 nM	–	–
CC1(C)c2cc(N3CCOCC3)ccc2Nc2c1cc(-c1nnc3n1CCCC3)c1c2C(=O)NC1 [Example 71]	11 nM	68.6 nM	–	–
CC1(C)c2cc(N3CCOCC3)ccc2Nc2c1cc(-c1cnc3c(C#N)cccn13)c1c2C(=O)NC1 [Example 34]	11.5 nM	2.41 nM	–	–
Cc1ccn2c(-c3cc4c(c5c3CNC5=O)Nc3ccc(N5CCOC(C(C)(C)O)C5)cc3C4(C)C)cnc2c1F (single isomer, unassigned) [Example 88]	–	12.3 nM	–	11.6 nM
Cc1ccn2c(-c3cc4c(c5c3CNC5=O)Nc3ccc(N5CCOC(CO)C5)cc3C4(C)C)cnc2c1F (stereo not shown) [Example 46]	10.3 nM	7.73 nM	–	–
CC1(C)c2cc(CN3CCNCC3)ccc2Nc2c1cc(-c1cnn3cccnc13)c1c2C(=O)NC1 [Example 57]	11 nM	27.1 nM	–	–
Cc1ccn2c(-c3cc4c(c5c3CNC5=O)Nc3ccc(N5CCC(O)CC5)cc3C4(C)C)cnc2c1F [Example 40]	12.3 nM	5.07 nM	–	–
Cc1ccnn2c(-c3cc4c(c5c3CNC5=O)Nc3ccc(N5CCOCC5)cc3C4(C)C)cnc12 [Example 54]	3.81 nM	6.53 nM	–	–
CN1CCN(Cc2ccc3c(c2)C(C)(C)c2cc(-c4cnn5cccnc45)c4c(c2N3)C(=O)NC4)CC1 [Example 50]	8.71 nM	19 nM	–	–
